Data as given in paper PMC7765375, “Novel Heme Oxygenase-1 (HO-1) Inducers Based on Dimethyl Fumarate Structure” (International Journal of Molecular Sciences, 2020).
Counter-ions that a name gives are not always drawn. Like-named read-outs stand apart in the source and are kept apart here.

How the values were obtained:
HO-1 = HO-1 expression by ELISA in LX-2 cell lysates; format: cell-based, human; details: for fold induction at 1 µM / fold induction at 5 µM / fold induction at 10 µM: Homo sapiens, LX-2, 24 h; for fold induction at 1 µM / fold induction at 5 µM / fold induction at 10 µM / Fold Induction (ELISA): 24 h, LX-2 cells lysate, vs control group, mean ± SD of triplicate; for potency as HO-1 inducers relative to DMF: LX-2 cells, more active than DMF
Experimental: (§1) LX 2 cell lines were bought from American Type Culture Collection (Rockville, MD, USA). Upon defrosting, the cells were seeded in 6-well plates and maintained in a medium DMEM low glucose supplemented with 10% FBS and a 1% Penicillin and Streptomycin solution. The obtained cell cultures were left at 37 °C in an incubator with 5% CO2, and the culture medium was changed after 3 or 4 days. Sub-confluent cells were treated over a period of 24 h using various concentrations (1, 5, 10 µM) of compounds 1a–o, 2a–c, and dimethyl fumarate (DMF) previously dissolved in DMSO. Control groups were treated with only DMSO.
The commercially available ELISA kit (ADI-EKS-800, Enzo Life Sci) was used to measure heme oxygenase […] (HO-1) protein concentration in LX2 cellular lysates. The test was performed in agreement with the protocol reported by the manufacturer. Absorbance at λ = 450 nm was measured and the concentration of HO-1 was calculated from a standard curve previously created using purified HO-1 protein. Results were expressed as folds of change compared to the control group. Individual measurement was performed in triplicate and data were reported as averages.

LX-2 cells [1] = test: MTT assay of cell viability; format: cell-based, human
Experimental: as §1
An MTT assay was performed to monitor cell viability, measuring the conversion of tetrazolium salt to yield colored formazan, the amount of which was proportional to the number of living cells. Regarding this assay, LX2 cells were seeded at a concentration of […] cells per well, in a 96-multiwell flat-bottomed 200 μL microplate. The optical density of each well was measured with a microplate spectrophotometer reader (Synergy HT, BioTek) at λ = 570 nm.

LX-2 cells [2] = test: ROS assay with DCFH-DA, palmitic acid (PA)-mediated ROS production; format: cell-based, human; details: 24 h; for ROS production mediated by palmitic acid (PA), co-treatment: 5 μM compound + PA 300 μM, p < 0.05 vs. PA
Experimental: Determination of the reactive oxygen species (ROS) was performed using a fluorescent probe 2′,7′-dichlorofluorescein diacetate (DCFH-DA). The fluorescence (corresponding to the oxidized radical species 2′,7′-dichlorofluorescein, DCF) was monitored spectrofluorometrically (excitation, λ = 488 nm; emission, λ = 525 nm). Results were reported as fluorescence intensity. Concerning the experiments, the cells were seeded in 96-well plates at a density of 1 × 10^4 cells per well. Then, the cells were treated for 24 h with DMEM containing a no cytotoxic concentration of palmitic acid (PA) 300 μM in the presence or absence of compound 1b, 1l, 1m and dimethyl fumarate (DMF) (5 μM).

Molecule	fold induction at 1 µM (HO-1; 1 μM)	fold induction at 5 µM (HO-1; 5 μM)	fold induction at 10 µM (HO-1; 10 μM)	IC50 (LX-2 cells [1]; Homo sapiens) [µM]	melting point [°C]	other results
O=C(/C=C/C(=O)Oc1ccccc1)Oc1ccccc1 [Compound 1a, (2E)-2-Butenedioic acid, 1,4-diphenyl ester]	6.65 ± 0.15	7.93 ± 0.18	8.16 ± 0.32	> 50	164 to 165	
O=C(/C=C/C(=O)Oc1ccc(Cl)cc1)Oc1ccc(Cl)cc1 [Compound 1b, (2E)-2-Butenedioic acid, 1,4-bis(4-chlorophenyl) ester]	8.81 ± 0.2	8.19 ± 0.21	11.7 ± 0.41	> 50	178 to 179	potency as HO-1 inducers relative to DMF (HO-1): 2–3 fold; ROS production mediated by palmitic acid (PA), co-treatment (LX-2 cells [2]): significantly reversed the effect mediated by PA
O=C(/C=C/C(=O)Oc1ccc(I)cc1)Oc1ccc(I)cc1 [Compound 1c, (2E)-2-Butenedioic acid, 1,4-bis(4-iodophenyl) ester]	6.02 ± 0.13	7.7 ± 0.19	8.13 ± 0.23	20.8 ± 1.5	266 to 267	
O=C(/C=C/C(=O)Oc1ccc(C(F)(F)F)cc1)Oc1ccc(C(F)(F)F)cc1 [Compound 1d, (2E)-2-Butenedioic acid, 1,4-bis(4-trifluoromethyphenyl) ester]		1.4 ± 0.03	0.68 ± 0.02	> 50	122 to 123	
N#Cc1ccc(OC(=O)/C=C/C(=O)Oc2ccc(C#N)cc2)cc1 [Compound 1e, (2E)-2-Butenedioic acid, 1,4-bis(4-cyanophenyl) ester]	3.68 ± 0.21	5.22 ± 0.11	6.5 ± 0.17	> 50	230 to 232	
Cc1ccc(OC(=O)/C=C/C(=O)Oc2ccc(C)cc2)cc1 [Compound 1f]	1.82 ± 0.09	3.94 ± 0.13	3.76 ± 0.15	> 50	160 to 161	
COc1ccc(OC(=O)/C=C/C(=O)Oc2ccc(OC)cc2)cc1 [Compound 1g, (2E)-2-Butenedioic acid, 1,4-bis(4-methoxyphenyl) ester]	0.3 ± 0.01	0.76 ± 0.02	0.9 ± 0.06	22.3 ± 1.8	180 to 181	
O=C(/C=C/C(=O)Oc1ccccc1C(=O)O)Oc1ccccc1C(=O)O [Compound 1h, (2E)-2-Butenedioic acid, 1,4-bis(2-carboxyphenyl) ester]	6.37 ± 0.22	7.45 ± 0.21	9.95 ± 0.19	> 50		
O=C(/C=C/C(=O)OCc1ccccc1)OCc1ccccc1 [Compound 1i, (2E)-2-Butenedioic acid, 1,4-bis(phenylmethyl) ester]	3.4 ± 0.18	5.86 ± 0.19	7.34 ± 0.28	17.7 ± 1.3	59 to 61	
O=C(/C=C/C(=O)OCCc1ccccc1)OCCc1ccccc1 [Compound 1j, (2E)-2-Butenedioic acid, 1,4-bis(phenylethyl) ester]	2.29 ± 0.1	5.91 ± 0.17	8.47 ± 0.33	> 50	77 to 79	
O=C(/C=C/C(=O)OCCCc1ccccc1)OCCCc1ccccc1 [Compound 1k, (2E)-2-Butenedioic acid, 1,4-bis(phenylpropyl) ester]	2.26 ± 0.09	5.98 ± 0.16	9.55 ± 0.27	> 50		
O=C(/C=C/C(=O)Nc1ccccc1)Nc1ccccc1 [Compound 1l, (E)-N, N’-Diphenyl-2-butenediamide]	6.9 ± 0.14	9.74 ± 0.25	10.2 ± 0.29	> 50	332 to 333	potency as HO-1 inducers relative to DMF (HO-1): 2–3 fold; ROS production mediated by palmitic acid (PA), co-treatment (LX-2 cells [2]): significantly reversed the effect mediated by PA
O=C(/C=C/C(=O)NCc1ccccc1)NCc1ccccc1 [Compound 1m, (E)-N, N’-Diphenylmethyl-2-butenediamide]	> 7	> 14	13.8 ± 0.35	18.6 ± 1.4		Fold Induction (ELISA) (HO-1; 5 μM, 5 µM): 14.15 ± 0.34 fold; potency as HO-1 inducers relative to DMF (HO-1): 2–3 fold; ROS production mediated by palmitic acid (PA), co-treatment (LX-2 cells [2]): significantly reversed the effect mediated by PA
COC(=O)/C=C/C(=O)Oc1ccccc1 [Compound 2a, (2E)-2-Butenedioic Acid, Methyl Phenyl Ester]				> 50	54 to 55	
COC(=O)/C=C/C(=O)OCc1ccccc1 [Compound 2b, (2E)-2-Butenedioic acid, methyl phenylmethyl ester]			0.28	> 50	50 to 51	
COC(=O)/C=C/C(=O)OCCc1ccccc1 [Compound 2c, (2E)-2-Butenedioic acid, methyl phenylethyl ester]				> 50	44 to 45	
COC(=O)/C=C/C(=O)OC [DMF, dimethyl fumarate]	2.78 ± 0.09	7.63 ± 0.31	8.3 ± 0.23	> 50		ROS production mediated by palmitic acid (PA), co-treatment (LX-2 cells [2]): significantly reversed the effect mediated by PA
CCCCCCCCCCCCCCCC(=O)O [PA, palmitic acid, reference compound]						ROS production, PA alone (LX-2 cells [2]; PA 300 μM, p < 0.05 vs. control): increased ROS production
(E)-N, N’-Diphenylethyl-2-butenediamide [Compound 1n]						Fold Induction (ELISA) (HO-1; 1 μM): 5.82 ± 0.12 fold; Fold Induction (ELISA) (HO-1; 5 μM): 7.52 ± 0.21 fold; Fold Induction (ELISA) (HO-1; 10 μM): 8.40 ± 0.38 fold; IC50 (LX-2 cells [1]): > 50 µM
(E)-N, N’-Diphenylpropyl-2-butenediamide [Compound 1o]						Fold Induction (ELISA) (HO-1; 1 μM): 4.85 ± 0.13 fold; Fold Induction (ELISA) (HO-1; 5 μM): 6.93 ± 0.23 fold; Fold Induction (ELISA) (HO-1; 10 μM): 6.30 ± 0.21 fold; IC50 (LX-2 cells [1]): > 50 µM
